Reference: BindingDB's records for doi:10.1016/j.bmc.2013.02.042 (The City University of New York, 2013)

Biological target: Sphingosine kinase 1 (Homo sapiens, UniProt Q9NYA1)
Experiment: Competitive inhibition of SK1 (unknown origin) in presence of ATP

Chain of Sphingosine kinase 1 (Q9NYA1 whole entry): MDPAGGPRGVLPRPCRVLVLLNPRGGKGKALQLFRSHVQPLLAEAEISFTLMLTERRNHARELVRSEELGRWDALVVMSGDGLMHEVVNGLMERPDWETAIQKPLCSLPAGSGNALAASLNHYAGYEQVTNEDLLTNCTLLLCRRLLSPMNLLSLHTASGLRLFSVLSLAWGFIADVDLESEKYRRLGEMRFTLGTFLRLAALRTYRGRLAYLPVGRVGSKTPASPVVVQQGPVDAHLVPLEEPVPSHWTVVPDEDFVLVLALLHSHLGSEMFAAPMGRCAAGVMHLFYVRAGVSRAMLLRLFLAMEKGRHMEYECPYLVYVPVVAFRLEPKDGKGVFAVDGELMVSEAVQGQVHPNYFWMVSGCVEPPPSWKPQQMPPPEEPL

`CCCCCCCCc1ccc(CC[C@](N)(/C=C/P(=O)(O)O)CO)cc1` was tested, and the Ki was 10 µM.
